Experimental data: patent publication US4752614A, “Pharmaceutical compositions of tellerium and selenium compounds for the induction of in vivo and in vitro production of cytokines” (Bar-Ilan University, priority 1987, dated 1988)
Values joined by “and” are separate entries in the source; they are usually repeats but may differ in a detail not shown here. Identical values can stand only once. “Also recorded” adds a separate entry of the source. Like-named read-outs stand apart in the source and are kept apart here.

How the values were obtained:
[1] = Dissolution in aqueous vehicles; type: physicochemical; settings: organic solvent or mixture, read-out: solubility (will dissolve)
Source text: The invention also contemplates a method for dissolving the compounds of the invention in an aqueous vehicle. This method comprises the use of ultrasound or mechanical agitation for an extended period of time which will dissolve the compound. Generally ultrasound is produced by a transformer which transforms 50/60 hertz, line voltage AC into high frequency electrical energy which is coupled to a transducer. By using piezoelectric ceramics, electrical frequency is converted into mechanical vibration. Typical amplitudes of 0.0003 for 40 k Hz equipment and 0.00007 to 0.001 for 20 k Hz equipment are useful. The transducer may be provided with a booster that is connected to a horn that has means for conducting the ultrasound to a container that holds the liquid for dissolving the compounds of the invention. Useful devices include small scale ultrasonic cleaners such as the Bronson instrument. […] The time required for this is usually 3 hours to 24 hours. High speed mechanical shakers such as a Tutenhauer shaker or waring blenders may be used for this purpose. The use of an electically operated agitator will cause the compounds to form a solution or dispersion after about 3 to 4 hours of agitation.
Using stirring 5.0 mg of the compound of Example 1 is dissolved under sterile conditions in 20 ml of glycerol. Thereafter 80 ml of PBS is added to form a solution containing 10 μg/0.2 ml.
It has been determined that the compound of Example 1 will dissolve as follows: […]

IL-2 [2] = assay: Oral administration in powdered sucrose, IL-2 content (Example 13); type: in vivo, mice; settings: for IL-2 content: oral, 24 hours
Experimental: The compound of Example 1 was thoroughly mixed with powdered sucrose and 10 μg of the compound of example 1 in 25 mg of powdered sucrose was placed in the mouth of each mouse.
After 24 hours the mice were sacrificed and the spleens were processed as described above.

IL-2 [3] = assay: IL-2 secretion by mouse spleen cells in vitro, CTLD proliferation (Example 17); type: cell-based, male Balb/c mice; settings: 24 hours, 1 μg/ml of cell mixture
Experimental: The compounds listed below were tested in vitro at various concentrations that ranged from 10 μg/ml cells to 1×10^-6 μg/ml of cell mixtures. Cells were obtained from spleens of male Balb/c mice 6-8 weeks of age. Spleens were pushed through a stainless steel 60 mesh strainer to separate cells.

IL-2 receptors = assay: Induction of IL-2 receptors of human mononuclear cells, proliferation with recombinant IL-2 (Example 18); type: cell-based
Experimental: Human MNC were brought to a concentration of 10^6 cells/ml. RPMI+10% FCS. Aliquots of 0.2 ml. were placed in duplicate wells of microdishes and plates were incubated at 37° C. for 24 hrs. […] Plates were further incubated for 48 hrs. and labelled with 3H thymidine 24 hrs. before harvesting.
The proliferation was measured by ^3 HT uptake as described by Gillis et al, J. Immunol. […] The results are expressed in counts per minute.

IL-2 [4] = assay: IL-2 production by human mononuclear cells of normal donors and SLE patients (Example 20); type: cell-based
Experimental: Using the procedure of Example 4, human mononuclear cells were tested for their ability to produce IL-2 after induction with PHA or in unstimulated cells from normal donors and from patients suffering from systemic lupus erthyrematous. The IL-2 content was tested according to the procedure of Example 3 using the CTLD IL-2 dependent cell line.

West Nile virus (WNV) = assay: West Nile virus infection in mice (Example 22); type: in vivo, ICR mice; settings: for # Alive/Total Animals: Table A; for # Alive/Total Animals / # Alive/Total: preliminary; for # Alive/Total: Table B
Experimental: The compounds may be used as anti-bacterial or anti-viral agents in plants or in animals. Virus infections such as West Nile virus infections in mice are susceptible to the compound of the Example 1 at a dose of 10 μg/day/mouse. Plant bacterial infections such as crown gall caused by Agrobacterium tumefaciens may be treated or prevented by the application of a 0.1% solution of compounds of the invention.
The effect of the compound of Example 1 on an infection with West Nile virus (WNV) was determined. WNV is a toga virus of the flavivirus group, a positive single stranded RNA virus, which when injected IP to mice usually kills them within 5-8 days as a result of extensive damage to the central nervous system. For this study ICR mice (3 wks of age) were injected IP with the virus at the concentration of 10^3 or 10^4 LD 50 units/mouse. Injections of 10 μg/0.2 ml PBS/mouse of the compound of Ex. 1 were given on day -1 (one day prior to injection of virus) and 6 days after injection of virus.
In a second experiment, mice were injected with 10^3 IPLD50 virus and received injections of the compound of Example 1 (1 μg/0.2 ml PBS/mouse) on days -1, 1, 2 and 4.

SMILES: Cl[TeH]1(Cl)(Cl)OCCO1 [Example 1]
- solubility ([1]; 10% glycerol/90% pbs): 1000 µg/mL
- solubility ([1]; 20% glycerol/80% pbs): 1300 µg/mL
- solubility ([1]; 40% glycerol/60% pbs): 6000 µg/mL
- IL-2 content (IL-2 [2]; Test 1, 10 μg in 25 mg sucrose): 250,175 cpm and 166,475 cpm
- IL-2 content (IL-2 [2]; Test 2, 10 μg in 25 mg sucrose): 55,382 cpm and 41,938 cpm and 29,172 cpm
- induction of lymphokine production (IL-2 [2]; given in dry form or hydrolyzed in an aqueous diluent): active
- Spleen Cells (IL-2 activity) (IL-2 [3]): 14,600 cpm
- activation at 1 µg/mL (IL-2 [3]; Mus musculus, read-out: Spleen Cells, percent in parentheses (increase over control)): 472%
- proliferation (3HT uptake) (IL-2 receptors; Test A, 1 μg/ml): 28625 counts per minute and 27593 counts per minute
- proliferation (3HT uptake) (IL-2 receptors; Test A, 1 × 10^-3 μg/ml): 3652 counts per minute and 5055 counts per minute
- proliferation (3HT uptake) (IL-2 receptors; Test A, 1 × 10^-4 μg/ml): 3558 counts per minute and 4047 counts per minute
- proliferation (3HT uptake) (IL-2 receptors; Test A, 1 × 10^-5 μg/ml): 2474 counts per minute and 4063 counts per minute
- proliferation (3HT uptake) (IL-2 receptors; Test A, 5 × 10^-1 μg/ml): 120755 counts per minute and 105943 counts per minute
- proliferation (3HT uptake) (IL-2 receptors; Test B, 1 μg/ml): 23488 counts per minute
- proliferation (3HT uptake) (IL-2 receptors; Test B, 1 × 10^-2 μg/ml): 6057 counts per minute
- proliferation (3HT uptake) (IL-2 receptors; Test B, 1 × 10^-3 μg/ml): 5865 counts per minute
- proliferation (3HT uptake) (IL-2 receptors; Test B, 1 × 10^-4 μg/ml): 4960 counts per minute
- proliferation (3HT uptake) (IL-2 receptors; Test B, 1 × 10^-5 μg/ml): 7155 counts per minute
- proliferation (3HT uptake) (IL-2 receptors; Test B, 5 × 10^-1 μg/ml): 66910 counts per minute
- proliferation (3HT uptake) (IL-2 receptors; Test B, 5 × 10^-2 μg/ml): 5390 counts per minute
- proliferation (3HT uptake) (IL-2 receptors; Test B, 7 × 10^-1 μg/ml): 17620 counts per minute
- IL-2 production (IL-2 [4]; SLE, PHA +, 5 μg 0.2 ml PBS): 6.3 CPM × 10^-3 and 8.2 CPM × 10^-3 and 4.1 CPM × 10^-3
- IL-2 production (IL-2 [4]; SLE, PHA +, 1:50 PBS): 24.2 CPM × 10^-3 and 28.1 CPM × 10^-3 and 23.8 CPM × 10^-3
- IL-2 production (IL-2 [4]; SLE, PHA +, 1:100 PBS): 19.7 CPM × 10^-3 and 24.0 CPM × 10^-3 and 20.2 CPM × 10^-3
- IL-2 production (IL-2 [4]; SLE, PHA +, 1:200 PBS): 15.4 CPM × 10^-3 and 18.6 CPM × 10^-3 and 16.8 CPM × 10^-3
- IL-2 production (IL-2 [4]; SLE, PHA -, 5 μg 0.2 ml PBS): 2.0 CPM × 10^-3 and 2.4 CPM × 10^-3
- IL-2 production (IL-2 [4]; SLE, PHA -, 1:100 PBS): 32.1 CPM × 10^-3 and 35.1 CPM × 10^-3 and 18.1 CPM × 10^-3
- IL-2 production (IL-2 [4]; normal, PHA +, 5 μg 0.2 ml PBS): 36.4 CPM × 10^-3 and 30.4 CPM × 10^-3 and 38.9 CPM × 10^-3
- IL-2 production (IL-2 [4]; normal, PHA +, 1:50 PBS): 48.2 CPM × 10^-3 and 38.9 CPM × 10^-3 and 53.5 CPM × 10^-3
- IL-2 production (IL-2 [4]; normal, PHA +, 1:100 PBS): 46.2 CPM × 10^-3 and 54.2 CPM × 10^-3 and 44.8 CPM × 10^-3
- IL-2 production (IL-2 [4]; normal, PHA +, 1:200 PBS): 38.6 CPM × 10^-3 and 49.8 CPM × 10^-3 and 38.3 CPM × 10^-3
- IL-2 production (IL-2 [4]; normal, PHA -, 5 μg 0.2 ml PBS): 2.3 CPM × 10^-3 and 2.1 CPM × 10^-3
- IL-2 production (IL-2 [4]; normal, PHA -, 1:50 PBS): 43.6 CPM × 10^-3 and 52.2 CPM × 10^-3 and 50.8 CPM × 10^-3
- IL-2 production (IL-2 [4]; normal, PHA -, 1:100 PBS): 38.4 CPM × 10^-3 and 50.3 CPM × 10^-3 and 46.1 CPM × 10^-3
- IL-2 production (IL-2 [4]; normal, PHA -, 1:200 PBS): 30.1 CPM × 10^-3 and 47.1 CPM × 10^-3 and 31.3 CPM × 10^-3
- susceptibility of West Nile virus infections in mice (West Nile virus (WNV); 10 μg/day/mouse): susceptible
- survival beyond day 8 (West Nile virus (WNV); 10^3 IPLD50, 1 μg/mouse days -1, 1, 2 and 4): Two out of the remaining three survived an additional 8 days; also recorded: the third remained alive without any manifestations of clinical symptoms
- # Alive/Total Animals (West Nile virus (WNV); 10^3 LD50 virus, 10 μg/mouse days -1 and 6, after 8 days): 3/5
- # Alive/Total Animals (West Nile virus (WNV); 10^4 LD50 virus, 10 μg/mouse days -1 and 6, after 8 days): 3/5
- # Alive/Total Animals (West Nile virus (WNV); no virus (0), 10 μg/mouse days -1 and 6): 6/6
- # Alive/Total (West Nile virus (WNV); 10^3 IPLD50, 1 μg/mouse days -1, 1, 2 and 4, day 8): 3/5
- # Alive/Total (West Nile virus (WNV); compound alone, 1 μg/mouse days -1, 1, 2 and 4, day 8): 5/5
